Measured values published in patent US9045505B2, “Nitric oxide donors” (University of Otago, priority 2006, dated 2015).

System: liver or heart mitochondria
Test: Visualisation of S-nitrosated mitochondrial proteins by Cy3 maleimide labelling
Assay type: biochemical, rat
Settings: 10 μM MitoSNAP or 500 μM diamide, 5 min
Description: FIG. 11 is a series of graphs showing S-nitrosation of mitochondrial thiols by MitoSNAP. (a) Time course of S-nitrosation of mitochondrial proteins by MitoSNAP. Liver mitochondria (1 mg protein) were incubated in 1 ml KCl buffer supplemented with rotenone and succinate in the presence of 5 μM MitoSNAP. At various times mitochondria were treated with 10 mM N-ethylmaleimide (NEM), isolated by centrifugation and the S-nitrosothiol content assessed. Data are of a typical experiment showing means±range of duplicate samples for each time point, each measured in duplicate. The experiment was repeated twice. (b) S-nitrosation of mitochondrial proteins by different concentrations of MitoSNAP and SNAP. Aliquots of liver mitochondria were incubated with the indicated concentrations of MitoSNAP or SNAP for […] in the presence or absence of 500 nM FCCP and then assessed for S-nitrosothiol content as in (a). […] Data are of a typical experiment showing means±range of duplicate samples for each time point, each measured in duplicate. […] After further incubation for 5 min at 37° C. in the dark, the medium was removed and the content of S-nitrosated proteins was measured. […] S-nitrosated thiols were then selectively tagged with Cy3 maleimide and protein (10 μg) was then separated on a 12.5% SDS PAGE gel which was stained with coomassie blue and scanned for Cy3 fluorescence. […]

**Q.** How did the “Cy3 labelling of S-nitrosated proteins” value turn out when `CC(=O)NC(C(=O)NCCCCC[P+](c1ccccc1)(c1ccccc1)c1ccccc1)C(C)(C)SN=O.CS(=O)(=O)[O-]` (stereo not shown) [MitoSNAP, [5-(2-acetylamino-3-methyl-3-nitrosothio-butyrylamino)-penty1]-triphenylphosphonium methanesulfonate] was run?
**A.** S-nitrosation of a large number of different proteins
